Experimental data as given in paper PMC9804470, “A Formylglycine‐Peptide for the Site‐Directed Identification of Phosphotyrosine‐Mimetic Fragments” (Chemistry (Weinheim an Der Bergstrasse, Germany), 2022).
Entries after “also recorded” stand apart in the source; their conditions may differ. Read-outs that look alike come from different tables or passages of the source. *1 amine or outer side, *2 acyl side, *3 side chain or, on linkers, in order; H or OH if unused. [ ]: non-standard residue; d: D form. F2Pmp = N[C@@H](Cc1ccc(C(F)(F)P(=O)(O)O)cc1)C(=O)O; fGly = 2-formylglycine, O=C[C@H](N[*:1])C(=O)[*:2]; Dap = NC[C@H](N)C(=O)O

Tests used:
[1] = target: T1, catalytic domain of human PTP1B (Homo sapiens, UniProt P18031); test: Enzyme activity assay of PTP1B with fluorogenic substrate DiFMUP; type: biochemical; conditions: for Ki: read-out: KI PTP1B
T1 construct: catalytic domain of human PTP1B (amino acids 1–321); His7 (N, cleaved yes); made in house; host or cells: E. coli Rosetta (DE3)
T1 sequence (P18031 1-321): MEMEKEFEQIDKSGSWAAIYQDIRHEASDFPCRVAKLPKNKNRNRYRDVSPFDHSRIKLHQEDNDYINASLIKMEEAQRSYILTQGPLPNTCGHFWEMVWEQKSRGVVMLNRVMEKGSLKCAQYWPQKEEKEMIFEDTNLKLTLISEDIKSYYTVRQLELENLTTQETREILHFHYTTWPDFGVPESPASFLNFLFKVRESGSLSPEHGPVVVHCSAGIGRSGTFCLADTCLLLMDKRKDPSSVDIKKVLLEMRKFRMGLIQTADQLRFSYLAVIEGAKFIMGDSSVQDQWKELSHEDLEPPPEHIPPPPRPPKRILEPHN
Description: Protein Expression and purification: DNA encoding the catalytic domain of human PTP1B (amino acids 1–321) was subcloned into the pQLinkH vector. The gene encoding the N‐terminal His7‐tagged protein was over‐expressed at 17 °C in E. coli Rosetta (DE3). […] The His7‐tag was cleaved with tobacco etch virus protease at 20 °C prior to the gel‐filtration step. The catalytic domain of human SHP2 (amino acids 225–541) was purified from E. coli B21 (DE3). The overexpressed protein was fused to an N‐terminal His10‐tag. Cells were harvested and resuspended in 25 mM Tris‐HCl (pH=7.5), 50 mM NaCl, 1 % (v/v) Triton X‐100, 10 % (v/v) glycerol, 1 mM DTT. After cell lysis, debris was removed by centrifugation at 12,000 rpm for 30 min. The supernatant was filtered prior to affinity purification with Ni‐NTA agarose (Qiagen). The slurry was washed with 50 mM Tris‐HCl (pH=8.0), 500 mM NaCl supplemented with 25 mM imidazole. Reasonably pure protein was eluted with 200–300 mM imidazole. The purification was completed by size‐exclusion chromatography with a Superdex 75 16/600 column (GE Healthcare) equilibrated with 20 mM HEPES‐NaOH (pH=7.5), 50 mM NaCl, 1 mM DTT.
(§1) Enzyme activity assays of SHP2 and PTP1B: The catalytic activity of SHP2 catalytic domain and PTP1B were monitored using the fluorogenic substrate DiFMUP (6,8‐difluoro‐4‐methylumbelliferyl phosphate). Phosphatase reactions were performed at room temperature in 384‐well black plate, clear flat bottom, low flange, non‐binding surface (Corning, Cat# 3766) using a final volume of 20 μL and the following assay buffer conditions: 50 mM MOPS, pH=6.5, 200 mM NaCl, 50 μM TCEP, 0.03 % Tween‐20 (freshly added prior to each measurement). Test compounds were dissolved in DMSO or buffer at stock concentrations of 50, 20 or 10 mM and serially diluted. Enzyme (5 nM PTP1B or 2.5 nM SHP2 catalytic domain) and different concentrations of the tested compounds were incubated in buffer for 30–60 min at room temperature. Measurements were performed with a final concentration of 2.5 % DMSO unless stated otherwise at 37 °C and were performed in triplicate. Enzymatic reactions were started by adding DiFMUP (Invitrogen, cat# D6567) concentrations matching the experimentally determined KM values of the enzymes of 67 μM (PTP1B) or 72 μM (SHP2). Samples were excited at a wavelength of 360 nm and emitted fluorescence was recorded at 460 for 10 min using a microplate reader (infinite M1000 Pro, Tecan). Initial slope of fluorescence was determined in triplicate and IC50 values were calculated with GraphPad Prism 5. Determined IC50 values were converted into the corresponding KI values applying the Cheng Prusoff equation KI =IC50 /(1+[S]/KM ).

Solubility of peptide 3 = type: physicochemical; conditions: in water, buffer, and DMSO; qualitative
SHP2 = target: T2, SHP2 (Homo sapiens, UniProt Q06124); test: Dynamic ligation screening of nucleophilic fragments with formylglycine peptide 3, SHP2; type: biochemical; conditions: 3 100 μM pre-incubated 5 min, fragment 200 μM, 30 min RT before DiFMUP, triplicates
T2 construct: catalytic domain of human SHP2 (amino acids 225–541); His10 (N); made in house; host or cells: E. coli B21 (DE3)
T2 sequence (Q06124 225-541): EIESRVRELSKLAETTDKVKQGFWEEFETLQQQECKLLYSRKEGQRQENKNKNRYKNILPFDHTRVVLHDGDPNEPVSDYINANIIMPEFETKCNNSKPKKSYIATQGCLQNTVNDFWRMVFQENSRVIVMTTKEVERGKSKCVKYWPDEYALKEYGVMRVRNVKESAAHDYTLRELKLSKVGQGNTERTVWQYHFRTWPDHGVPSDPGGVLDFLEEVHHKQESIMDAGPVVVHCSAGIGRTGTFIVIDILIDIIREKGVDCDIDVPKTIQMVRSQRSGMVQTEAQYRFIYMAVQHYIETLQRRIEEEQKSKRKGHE
Description: as §1
(§2) Dynamic ligation screening of nucleophilic fragments with 3: Under assay conditions described above, PTP1B or SHP2 were pre‐incubated with 3 (100 μM) for 5 min. Subsequently, (200 μM) of the respective fragments were added and the resulting mixtures were incubated for 30 min at RT, prior to DiFMUP addition.

PTP1B [2] = target: T3, PTP1B (Homo sapiens, UniProt P18031); test: Dynamic ligation screening of nucleophilic fragments with formylglycine peptide 3, PTP1B; type: biochemical; conditions: 3 100 μM pre-incubated 5 min, fragment 200 μM, 30 min RT before DiFMUP, triplicates
T3 construct: catalytic domain of human PTP1B (amino acids 1–321); His7 (N, cleaved yes); made in house; host or cells: E. coli Rosetta (DE3)
T3 sequence (P18031 1-321): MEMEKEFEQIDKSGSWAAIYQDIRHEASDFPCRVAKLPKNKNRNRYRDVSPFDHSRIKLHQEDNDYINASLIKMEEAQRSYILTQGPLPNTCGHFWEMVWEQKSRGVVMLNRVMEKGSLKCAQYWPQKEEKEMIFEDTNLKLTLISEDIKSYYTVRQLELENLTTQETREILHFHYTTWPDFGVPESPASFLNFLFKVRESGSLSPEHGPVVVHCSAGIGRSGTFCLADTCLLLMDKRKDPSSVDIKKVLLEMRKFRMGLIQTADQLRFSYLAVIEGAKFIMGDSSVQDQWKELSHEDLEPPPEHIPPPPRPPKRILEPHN
Description: as §1, §2

PTP1B [3] = target: T3, PTP1B; test: Apparent KI values of in situ ligation products of 3 (time- and concentration-dependent assay); type: biochemical; conditions: for Effect of fragment ligation with 3 on inhibition curves of PTP1B: inhibition at different concentrations, with and without 3 / fragment (Figure 5C, D)
Description: as §1
Subsequently, over the course of 60 mins (every 15 min), 2 equivalents of fragment F1 were added to each of the different concentrations of 3 at RT, prior to DiFMUP addition.
Subsequently, fragment F2 was added at three different concentrations (1 equiv, 2 equiv, and 4 equiv) and the resulting mixtures were incubated for 30 min at RT, prior to DiFMUP addition.

[4] = target: T4, catalytic domain of human SHP2 (Homo sapiens, UniProt Q06124); test: Enzyme activity assay of SHP2 catalytic domain with fluorogenic substrate DiFMUP; type: biochemical; conditions: hydrazine fragments alone, DiFMUP assay; Supporting Table 1
T4 construct: catalytic domain of human SHP2 (amino acids 225–541); His10 (N); made in house; host or cells: E. coli B21 (DE3)
T4 sequence (Q06124 225-541): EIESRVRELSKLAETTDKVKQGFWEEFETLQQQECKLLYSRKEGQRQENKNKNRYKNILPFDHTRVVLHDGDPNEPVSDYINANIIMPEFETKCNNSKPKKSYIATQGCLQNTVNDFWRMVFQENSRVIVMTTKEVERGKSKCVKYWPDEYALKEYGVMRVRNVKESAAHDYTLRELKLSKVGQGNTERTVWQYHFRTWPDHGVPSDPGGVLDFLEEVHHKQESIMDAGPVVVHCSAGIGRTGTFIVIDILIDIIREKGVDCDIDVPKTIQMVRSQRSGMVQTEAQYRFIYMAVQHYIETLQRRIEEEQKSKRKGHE
Description: Enzyme activity assays of SHP2 and PTP1B: The catalytic activity of SHP2 catalytic domain and PTP1B were monitored using the fluorogenic substrate DiFMUP (6,8‐difluoro‐4‐methylumbelliferyl phosphate). Phosphatase reactions were performed at room temperature in 384‐well black plate, clear flat bottom, low flange, non‐binding surface (Corning, Cat# 3766) using a final volume of 20 μL and the following assay buffer conditions: 50 mM MOPS, pH=6.5, 200 mM NaCl, 50 μM TCEP, 0.03 % Tween‐20 (freshly added prior to each measurement). Test compounds were dissolved in DMSO or buffer at stock concentrations of 50, 20 or 10 mM and serially diluted. Enzyme (5 nM PTP1B or 2.5 nM SHP2 catalytic domain) and different concentrations of the tested compounds were incubated in buffer for 30–60 min at room temperature. […] Enzymatic reactions were started by adding DiFMUP (Invitrogen, cat# D6567) concentrations matching the experimentally determined KM values of the enzymes of 67 μM (PTP1B) or 72 μM (SHP2). Samples were excited at a wavelength of 360 nm and emitted fluorescence was recorded at 460 for 10 min using a microplate reader (infinite M1000 Pro, Tecan). Initial slope of fluorescence was determined in triplicate and IC50 values were calculated with GraphPad Prism 5. Determined IC50 values were converted into the corresponding KI values applying the Cheng Prusoff equation KI =IC50 /(1+[S]/KM ).

peptide 15 = target: T5, peptide 15 (Homo sapiens, UniProt P00533, not fully specified (residue 5); also: formylglycine reductively aminated with 4-amino-phenyl-acetic acid F1, place not in chain); test: DiFMUP enzyme inhibition assay
T5 chain: Ac-DADEYL-NH2

peptide 18 = target: T6, peptide 18 (Homo sapiens, UniProt P00533); test: DiFMUP enzyme inhibition assay
T6 chain: Ac-DADE[Dap](4‑trifluoromethylsulfonylamido‑phenyl)L-NH2

peptide 17 = target: T7, peptide 17 (Homo sapiens, UniProt P00533, not fully specified (residue 5); also: reduced Knoevenagel product of formylglycine with barbituric acid, place not in chain); test: DiFMUP enzyme inhibition assay
T7 chain: Ac-DADEYL-NH2

[5] = target: T8, peptide 2 Ac-DADE(PDFM-F)L-NH2 (Homo sapiens, UniProt P00533); test: DiFMUP enzyme inhibition assay
T8 chain: Ac-DADE[F2Pmp]L-NH2

peptide 16 = target: T9, peptide 16 (Homo sapiens, UniProt P00533, not fully specified (residue 5); also: formylglycine reductively aminated with aryl amine F4, place not in chain); test: DiFMUP enzyme inhibition assay
T9 chain: Ac-DADEYL-NH2

formylglycine peptide 3 = target: T10, formylglycine peptide 3 (Homo sapiens, UniProt P00533); test: DiFMUP enzyme inhibition assay
T10 chain: Ac-DADE[fGly]L-NH2

CC(=O)N[C@@H](CC(=O)O)C(=O)N[C@@H](C)C(=O)N[C@@H](CC(=O)O)C(=O)N[C@@H](CCC(=O)O)C(=O)NC(C=O)C(=O)N[C@@H](CC(C)C)C(N)=O (stereo partly drawn) [Compound 3, N‐Acetyl‐L‐aspartyl‐L‐alaninyl‐L‐aspartyl‐L‐glutamyl‐2‐formylglycyl‐L‐leucinyl‐amide]
Ki ([1]; SD): 484 ± 30 µM
Solubility (Solubility of peptide 3): highly soluble

Nc1ccc(CC(=O)O)cc1 [Compound F1, 4‐amino‐phenyl‐acetic acid]
Enhancement of inhibition of SHP2 by fragment in combination with peptide 3 (fragment ligation assay) (SHP2): over‐additive inhibition; also recorded: super‐additive inhibition
Enhancement of inhibition of PTP1B by fragment in combination with peptide 3 (fragment ligation assay) (PTP1B [2]): over‐additive inhibition; also recorded: super‐additive inhibition

Nc1ccc(NS(=O)(=O)C(F)(F)F)cc1 [Compound F2, N‐(4‐aminophenyl)‐trifluoromethyl sulfonamide]
Enhancement of inhibition of SHP2 by fragment in combination with peptide 3 (fragment ligation assay) (SHP2): over‐additive inhibition; also recorded: super‐additive inhibition
Ki (PTP1B [3]; PTP1B, ligation product of F2 with 3, read-out: apparent KI of fragment ligation product with 3 (legend of Figure 5B)): 17 µM
Enhancement of inhibition of PTP1B by fragment in combination with peptide 3 (fragment ligation assay) (PTP1B [2]): over‐additive inhibition; also recorded: pronounced activity; also recorded: super‐additive inhibition

NNc1ccc(S(=O)(=O)O)cc1 [Compound F3, 4‐hydrazo‐phenylsulfonic acid]
Effect of fragment ligation with 3 on inhibition curves of PTP1B (PTP1B [3]): did not enforce inhibition of PTP1B further
IC50 [4]: > 250 µM
IC50 ([1]; hydrazine fragments alone, DiFMUP assay, Supporting Table 1): 34 µM
Ki [1]: 17 µM

Nc1ccc(OCC(=O)O)cc1 [Compound F4, 4‐amino‐phenoxyacetic acid]
Enhancement of inhibition of SHP2 by fragment in combination with peptide 3 (fragment ligation assay) (SHP2): over‐additive inhibition; also recorded: super‐additive inhibition
Enhancement of inhibition of PTP1B by fragment in combination with peptide 3 (fragment ligation assay) (PTP1B [2]): over‐additive inhibition; also recorded: super‐additive inhibition

Nc1ccc(S(F)(F)(F)(F)F)cc1 [Compound F7, 4‐amino‐phenyl‐pentafluorosulfate]
Effect of fragment ligation with 3 on inhibition curves of PTP1B (PTP1B [3]): identical inhibition curves
Enhancement of inhibition of PTP1B by fragment in combination with peptide 3 (fragment ligation assay) (PTP1B [2]): inactive

B1: PTP1B 1-321 (protein)
chain: MEMEKEFEQIDKSGSWAAIYQDIRHEASDFPCRVAKLPKNKNRNRYRDVSPFDHSRIKLHQEDNDYINASLIKMEEAQRSYILTQGPLPNTCGHFWEMVWEQKSRGVVMLNRVMEKGSLKCAQYWPQKEEKEMIFEDTNLKLTLISEDIKSYYTVRQLELENLTTQETREILHFHYTTWPDFGVPESPASFLNFLFKVRESGSLSPEHGPVVVHCSAGIGRSGTFCLADTCLLLMDKRKDPSSVDIKKVLLEMRKFRMGLIQTADQLRFSYLAVIEGAKFIMGDSSVQDQWKELSHEDLEPPPEHIPPPPRPPKRILEPHN
Ki (peptide 15): 138 µM
Ki (peptide 18): 202 µM
Ki (peptide 17): 123 µM
Ki [5]: 1.4 µM
Ki (peptide 16): 213 µM
Ki (formylglycine peptide 3): 484 µM
